Results on four compounds are retold here after publication PMC9454457 (Journal of Nuclear Medicine, 2022).

Series [1] is described as follows: Lipophilicity, n-octanol-PBS distribution coefficient (logD7.4). It is filed as physicochemical. To be noted: n-octanol/PBS pH 7.4. The procedure: Approximately 1 MBq of the ^177Lu-labeled compound was dissolved in 1 mL of phosphate-buffered saline (pH 7.4) and n-octanol (v/v = 1/1). After stirring for 3 min at room temperature in a vortex mixer and subsequent centrifugation at 9,000 rpm for 5 min (Biofuge 15; Heraeus Sepatech GmbH), 200-μL aliquots of both layers were measured separately in a γ-counter. The experiment was repeated at least 5 times.

The nature of series [2]: In vitro metabolic stability in human plasma. It is filed as in vitro ADME. The conditions noted are these: 37°C, 72 ± 2 h, n = 4. The procedure: Metabolic stability in vitro was determined through a procedure published by Linder et al. that was slightly modified ([16]). Immediately after labeling, 200 μL of human plasma were added and the mixture was incubated at 37°C for 72 ± 2 h. Proteins were precipitated by treatment with ice-cold EtOH (150 μL) and ice-cold MeCN (450 μL), followed by centrifugation (13,000 rpm, 20 min). The supernatants were decanted and further centrifuged (13,000 rpm, 10 min) using a Costar Spin-X (Corning) centrifuge tube filter (0.45 μm). The filtrated plasma samples were analyzed using radio–RP-HPLC.
(§1) FIGURE 2. Preclinical data of ^nat/177Lu-RM2 (red), ^nat/177Lu-NeoBOMB1 (gray), ^nat/177Lu-AMTG (green), and ^nat/177Lu-AMTG2 (blue). (A) Affinity data on PC-3 and T-47D cells (1.5 × 10^5 cells/mL/well) using 3-^125I-D-Tyr^6-MJ9 (0.2 nM/well) as radiolabeled reference (2 h, room temperature, Hanks’ balanced salt solution plus 1% bovine serum albumin [v/v]). (B) GRPR-mediated internalization (0.25 pmol/well) on PC-3 cells as percentage of applied activity (incubation at 37°C for 1 h, Dulbecco modified Eagle medium/F-12 plus 5% bovine serum albumin [v/v], 1.5 × 10^5 cells/mL/well). Data were corrected for nonspecific binding (10^−3 M ^natLu-RM2). (C) Lipophilicity at pH 7.4 (logD7.4). (D) Metabolic stability in vitro in human plasma (left) (37°C, 72 ± 2 h; n = 4), and metabolic stability in vivo in murine plasma (middle) and murine urine (right) at 30 min after injection (n = 3). Data are expressed as mean ± SD.

The conditions of series [3]: 30 min after injection; cited from earlier work.
Series [4] is described as follows: Biodistribution in PC-3 tumor-bearing CB17-SCID mice. The format is in vivo. The procedure: A detailed description of tumor inoculation is provided in the supplemental materials. Approximately 2–5 MBq (100 pmol, 150 μL) of the ^177Lu-labeled GRPR ligands were injected into the tail vein of anesthetized (2% isoflurane) PC-3 tumor–bearing mice (biodistribution, n = 4; imaging, n = 1).
For biodistribution studies, organs were removed, weighed, and measured in a γ-counter (Perkin Elmer) after euthanasia at 24 h after injection.
For all competition studies, 3.62 mg/kg (40 nmol) of ^natLu-RM2 (10^−3 M in phosphate-buffered saline) were coadministered.

Series [5] is described as follows: In vivo metabolic stability in murine plasma and urine. Set-up: species or system CB17-SCID mice. To be noted: 30 min after injection, n = 3. The procedure: Approximately 30–40 MBq (1 nmol, 150 μL) of the ^177Lu-labeled compounds were injected into the tail vein of anesthetized CB17-SCID mice (n = 3). After euthanasia at 30 min after injection, blood and urine samples were collected. Blood proteins were precipitated by treatment with ice-cold MeCN (v/v = 1/1), followed by centrifugation (13,000 rpm, 20 min). The supernatants were decanted and further centrifuged (13,000 rpm, 10 min) using a Costar Spin-X centrifuge tube filter (0.45 μm). The filtrated plasma samples and the urine samples were analyzed using radio–RP-HPLC.
as §1

Series [6] deals with T1, GRPR (Homo sapiens, UniProt P30550).
T1 construct: endogenous in cells; host or cells: PC-3 cells
Nature of the series: Competitive binding (IC50) on PC-3 cells vs 3-125I-D-Tyr6-MJ9. To be noted: 2 h, room temperature, 3-125I-D-Tyr6-MJ9 0.2 nM/well, n = 3. How it is done:
Competitive binding studies were performed on both PC-3 and T-47D cells (1.5 × 10^5 cells in 1 mL/well) via incubation at room temperature for 2 h using 3-^125I-D-Tyr^6-MJ9 (0.2 nM/well) as a radiolabeled reference (n = 3). Internalization studies of the ^177Lu-labeled conjugates (1.0 nM/well) were performed on PC-3 cells (1.5 × 10^5 cells in 1 mL/well) at 37°C for 1 h (n = 6). Data were corrected for nonspecific binding (competition by 10^−3 M ^natLu-RM2).
as §1

In series [7] the target is T1, GRPR. Set-up: method as in PMID 19671861, PMID 17262215. The conditions noted are these: 1 h in vitro; cited from earlier work.

Like-named read-outs stand apart in the source and are kept apart here.

T1 sequence (P30550 whole entry): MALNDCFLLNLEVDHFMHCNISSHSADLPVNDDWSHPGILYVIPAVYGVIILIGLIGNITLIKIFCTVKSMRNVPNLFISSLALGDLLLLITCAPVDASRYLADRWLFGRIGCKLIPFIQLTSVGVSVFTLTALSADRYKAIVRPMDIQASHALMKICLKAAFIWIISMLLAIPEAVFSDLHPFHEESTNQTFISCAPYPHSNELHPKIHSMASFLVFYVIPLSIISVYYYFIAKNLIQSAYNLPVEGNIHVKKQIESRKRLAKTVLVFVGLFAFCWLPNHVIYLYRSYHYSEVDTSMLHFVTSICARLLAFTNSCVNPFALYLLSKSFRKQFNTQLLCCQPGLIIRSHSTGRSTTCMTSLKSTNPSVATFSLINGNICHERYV

A word on the logD: it is the decadic logarithm of the distribution of all forms, ionised or not, between an organic phase and buffer at a given pH. Lower therefore signals a more hydrophilic compound. With `CC(C)CC(CC(C)C)NC(=O)[C@H](Cc1cnc[nH]1)NC(=O)CNC(=O)[C@@H](NC(=O)[C@H](C)NC(=O)[C@H](Cc1c[nH]c2ccccc12)NC(=O)[C@H](CCC(N)=O)NC(=O)[C@@H](Cc1ccccc1)NC(=O)COCC(=O)Nc1ccc(CNC(=O)CN2CCN(CC(=O)O)CCN(CC(=O)O)CCN(CC(=O)O)CC2)cc1)C(C)C` [^177Lu-NeoBOMB1, metal not drawn, reference compound], the log distribution coefficient (logD) in series [1] is -0.57 ± 0.03. In addition, in series [2], the “Intact compound in human plasma in vitro” value is 61.9% ± 2.1%. In addition, the “Fraction of intact tracer in murine blood” value in series [3] was 90%. Moreover, the tissue uptake at 24 h in series [4] (CB17-SCID, mouse, blood, intravenous, total radioactivity; 24 h after injection, 100 pmol, n = 4; read-out: Biodistribution, Blood) came to 0.057 ± 0.027 %ID/g; in series [4] (CB17-SCID, mouse, heart, intravenous, total radioactivity; 24 h after injection, 100 pmol, n = 4; read-out: Biodistribution, Heart), 0.1 ± 0.03 %ID/g; in series [4] (CB17-SCID, mouse, intestine, intravenous, total radioactivity; 24 h after injection, 100 pmol, n = 4; read-out: Biodistribution, Intestine), 0.85 ± 0.05 %ID/g; in series [4] (CB17-SCID, mouse, kidney, intravenous, total radioactivity; 24 h after injection, 100 pmol, n = 4; read-out: Biodistribution, Kidney) it was 1.9 ± 0.72 %ID/g; in series [4] (CB17-SCID, mouse, liver, intravenous, total radioactivity; 24 h after injection, 100 pmol, n = 4; read-out: Biodistribution, Liver), 1.6 ± 0.62 %ID/g; in series [4] (CB17-SCID, mouse, lung, intravenous, total radioactivity; 24 h after injection, 100 pmol, n = 4; read-out: Biodistribution, Lung), 0.43 %ID/g. The tissue uptake at 24 h in series [4] (CB17-SCID, mouse, muscle, intravenous, total radioactivity; 24 h after injection, 100 pmol, n = 4; read-out: Biodistribution, Muscle) was determined as 0.01 ± 0.005 %ID/g; in series [4] (CB17-SCID, mouse, pancreas, intravenous, total radioactivity; 24 h after injection, 100 pmol, n = 4; read-out: Biodistribution, Pancreas) it was 8.48 ± 0.92 %ID/g; in series [4] (CB17-SCID, mouse, spleen, intravenous, total radioactivity; 24 h after injection, 100 pmol, n = 4; read-out: Biodistribution, Spleen) it was 1.94 ± 0.97 %ID/g; in series [4] (CB17-SCID, mouse, stomach, intravenous, total radioactivity; 24 h after injection, 100 pmol, n = 4; read-out: Biodistribution, Stomach), 1.29 ± 0.12 %ID/g; in series [4] (CB17-SCID, mouse, tumor (PC-3), intravenous, total radioactivity; PC-3 tumor, 24 h after injection, 100 pmol, n = 4; read-out: Biodistribution, Tumor), 7.23 ± 0.91 %ID/g. The “Intact tracer in murine plasma in vivo” value in series [5] is on record as 75.9% ± 0.6%. In series [5], the “Intact tracer in murine urine in vivo” value is recorded as 3.9% ± 1.3%.
With `CC(C)C[C@H](NC(=O)C[C@H](O)[C@H](CC(C)C)NC(=O)[C@H](Cc1c[nH]cn1)NC(=O)CNC(=O)[C@@H](NC(=O)[C@H](C)NC(=O)[C@H](Cc1c[nH]c2ccccc12)NC(=O)[C@H](CCC(N)=O)NC(=O)[C@@H](Cc1ccccc1)NC(=O)CN1CCC(NC(=O)CN2CCN(CC(=O)O)CCN(CC(=O)O)CCN(CC(=O)O)CC2)CC1)C(C)C)C(N)=O` [^177Lu-RM2, metal not drawn, reference compound], in series [2], the “Intact compound in human plasma in vitro” value is recorded as 38.7% ± 9.3%. Moreover, the tissue uptake at 24 h in series [4] (CB17-SCID, mouse, adrenal, intravenous, 100 pmol, total radioactivity, 24 h after injection, 100 pmol, n = 4; read-out: Biodistribution, Adrenal) is 0.8 ± 0.16 %ID/g; in series [4] (CB17-SCID, mouse, blood, intravenous, 100 pmol, total radioactivity, 24 h after injection, 100 pmol, n = 4; read-out: Biodistribution, Blood) it was 0.012 ± 0.001 %ID/g; in series [4] (CB17-SCID, mouse, bone, intravenous, 100 pmol, total radioactivity, 24 h after injection, 100 pmol, n = 4; read-out: Biodistribution, Bone) it was 1.31 ± 0.56 %ID/g; in series [4] (CB17-SCID, mouse, kidney, intravenous, 100 pmol, total radioactivity, 24 h after injection, 100 pmol, n = 4; read-out: Biodistribution, Kidney), 1.79 ± 0.05 %ID/g; in series [4] (CB17-SCID, mouse, liver, intravenous, 100 pmol, total radioactivity, 24 h after injection, 100 pmol, n = 4; read-out: Biodistribution, Liver) it was 0.45 ± 0.03 %ID/g; in series [4] (CB17-SCID, mouse, muscle, intravenous, 100 pmol, total radioactivity, 24 h after injection, 100 pmol, n = 4; read-out: Biodistribution, Muscle) it was 0.011 ± 0.011 %ID/g. The tissue uptake at 24 h worked out at 0.43 ± 0.06 %ID/g in series [4] (CB17-SCID, mouse, pancreas, intravenous, 100 pmol, total radioactivity, 24 h after injection, 100 pmol, n = 4; read-out: Biodistribution, Pancreas) and 8.45 ± 0.19 %ID/g in series [4] (CB17-SCID, mouse, tumor (PC-3), intravenous, 100 pmol, total radioactivity, PC-3 tumor, 24 h after injection, 100 pmol, n = 4; read-out: Biodistribution, Tumor). The “Intact tracer in murine plasma in vivo” value in series [5] is 11.4% ± 3.7%. In addition, in series [5], the “Intact tracer in murine urine in vivo” value is 0.5% ± 0.1%.
What is called IC50 is the concentration needed to halve the response being measured. High values mean a need for much substance, low ones inhibition by little substance. As for `CC(C)C[C@H](NC(=O)C[C@H](O)[C@H](CC(C)C)NC(=O)[C@H](Cc1c[nH]cn1)NC(=O)CNC(=O)[C@@H](NC(=O)[C@H](C)NC(=O)[C@H](Cc1c[nH]c2ccccc12)NC(=O)[C@H](CCC(N)=O)NC(=O)[C@@H](Cc1ccc(O)c(I)c1)NC(=O)CN1CCC(N)CC1)C(C)C)C(N)=O` [cold counterpart of 3-^125I-D-Tyr^6-MJ9], the half-inhibitory concentration (IC50) on GRPR [6] turned out to be 1.3 ± 0.4 nM.
In the case of “DOTA-4-aminobenzoyl-Gln^7- Trp^8-Ala^9- Val^10- Gly^11- His^12- Leu^13-Met^14-NH2 [AMBA]”, the Internalization rates entry at GRPR [7] is recorded as “more than 25%”.
